Experimental data published in the supplement of paper PMC10307832.

Compound: CN(C)C[C@@H]1CCn2cc(c3ccccc32)C2=C(C(=O)NC2=O)c2cn(c3ccccc23)CCO1 [Ruboxistaurin] + CCNC(=O)c1noc(-c2cc(C(C)C)c(O)cc2O)c1-c1ccc(CN2CCOCC2)cc1 [Luminespib] (partner 0.01 µM)
Test: relative viability (nuclei count vs DMSO), 5 days (fraction); higher = more cells survive
Summary of the method: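 Relative viability is defined as nuclei in treated wells over nuclei in vehicle wells. Duplicate plates were run and medians reported. Lung cancer cell lines in 1536-well plates were dosed by pin tool one day after seeding, with one drug or with a fixed anchor-drug dose plus five library-drug doses (not always all listed) in √10 steps, and nuclei were counted after 5 days.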

Row | Cell Line | relative viability (first compound 0.08 µM) | relative viability (first compound 0.8 µM) | relative viability (first compound 2.53 µM) | relative viability (first compound 8 µM)
1 | LXF-289 | 0.679 | 0.628 | 0.677 | 0.754
2 | BEN | 0.418 | 0.391 | 0.384 | 0.179
3 | NCI-H2023 | 0.679 | 0.426 | 0.668 | 0.344
4 | NCI-H661 | 0.883 | 0.817 | 0.942 | 1.01
5 | NCI-H1355 | 0.734 | 0.592 | 0.788 | 0.534
6 | NCI-H1793 | 0.148 | 0.152 | 0.172 | 0.188
7 | COR-L 105 | 1.06 | 0.784 | 0.681 | 0.941
8 | NCI-H2228 | 0.173 | 0.172 | 0.125 | 0.111
9 | NCI-H838 | 0.292 | 0.239 | 0.425 | 0.382
10 | EMC-BAC-2 | 1.23 | 1.12 | 0.991 | 0.925
11 | LU99A | 0.239 | 0.224 | 0.265 | 0.24
12 | PC-3 [JPC-3] | 0.703 | 0.649 | 0.75 | 0.757
13 | NCI-H596 | 0.93 | 0.943 | 1.26 | 0.794
14 | LCLC-97TM1 | 0.769 | 0.815 | 0.741 | 0.675
15 | NCI-H1993 | 1.06 | 0.599 | 0.926 | 0.887
16 | HARA | 0.612 | 0.495 | 0.837 | 0.601
17 | NCI-H460 | 0.0344 | 0.0361 | 0.0325 | 0.0312

Row | Cell Line | relative viability (first compound 0.08 µM) | relative viability (first compound 0.8 µM) | relative viability (first compound 2.53 µM) | relative viability (first compound 8 µM)
18 | NCI-H1650 | 0.185 | 0.207 | 0.189 | 0.183
19 | EKVX | 0.945 | 0.843 | 0.919 | 0.926
20 | NCI-H1755 | 0.511 | 0.328 | 0.417 | 0.406
21 | NCI-H1395 | 0.918 | 0.66 | 0.769 | 0.488
22 | NCI-H1792 | 0.431 | 0.317 | 0.375 | 0.32
23 | NCI-H2087 | 0.175 | 0.215 | 0.162 | 0.156
24 | H3255 | 1.02 | 0.726 | 0.957 | 0.865
25 | SK-MES-1 | 0.928 | 0.65 | 0.859 | 0.363
26 | NCI-H23 | 0.23 | 0.213 | 0.225 | 0.2
27 | HCC-827 | 0.748 | 0.708 | 0.627 | 0.612
28 | UMC-11 | 1.04 | 0.804 | 0.961 | 0.695
29 | NCI-H1975 | 0.266 | 0.0934 | 0.223 | 0.209
30 | NCI-H1563 | 0.507 | 0.544 | 0.483 | 0.52
31 | COR-L23 | 0.799 | 0.55 | 0.714 | 0.632
32 | CAL-12T | 0.399 | 0.472 | 0.362 | 0.544
33 | SW 1573 | 0.232 | 0.208 | 0.314 | 0.182
34 | NCI-H2126 | 0.961 | 0.893 | 0.983 | 0.893
